According to patent publication US20220323406A1, “METHODS AND COMPOSITIONS FOR DIFFERENTIATING STEM CELLS” (Massachusetts Institute of Technology, priority 2019, published 2022):

Columns and labels:
[1] = test system: ENR+CD organoids (ISC to Paneth cell differentiation); test: Primary screen: basal (non-stimulated) lysozyme secretion LYZ.NS, 2.5-D 384-well ENR+CD organoid differentiation; format: cell-based, mouse
Text: (§1) High-throughput screening.

[2] = test system: ENR+CD organoids (ISC to Paneth cell differentiation); test: Primary screen: CCh-stimulated lysozyme secretion LYZ.S, 2.5-D 384-well ENR+CD organoid differentiation; format: cell-based, mouse; details: primary screen
Text: as §1

ENR+CD organoids = test: Primary screen: ATP (CellTiter-Glo 3D, CTG) cell number/viability, 2.5-D 384-well ENR+CD organoids; details: primary screen; for Z.CTG: standard z score;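 on all read-outs here: compounds given at plating and again on day 3 over a 6-day differentiation from ENR+CV stem-cell-enriched precursors, ATP measured on day 6, plate median as control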
[3] = primary screen, dose 0.08 uM, standard z score
[4] = primary screen, dose 0.40 uM, standard z score
[5] = primary screen, dose 2.00 uM, standard z score
[6] = primary screen, dose 10.00 uM, standard z score
[7] = primary screen; dose 0.08 uM; FC vs plate median
[8] = primary screen; dose 0.40 uM; FC vs plate median
[9] = primary screen; dose 2.00 uM; FC vs plate median
[10] = primary screen; dose 10.00 uM; FC vs plate median
[11] = dose 0.08 uM, FC vs plate median
[12] = dose 0.40 uM, FC vs plate median
[13] = dose 2.00 uM, FC vs plate median
[14] = dose 10.00 uM, FC vs plate median
[15] = dose 0.08 uM, FC relative to plate median
[16] = dose 0.40 uM, FC relative to plate median
[17] = dose 2.00 uM, FC relative to plate median
[18] = dose 10.00 uM, FC relative to plate median

Structure (SMILES)	Dose.FC.LYZ.NS ([1]; primary screen, dose 0.08 uM)	Dose.FC.LYZ.NS ([1]; primary screen, dose 0.40 uM)	Dose.FC.LYZ.NS ([1]; primary screen, dose 2.00 uM)	Dose.FC.LYZ.NS ([1]; primary screen, dose 10.00 uM)	Dose.FC.LYZ.S ([2]; dose 0.08 uM)	Dose.FC.LYZ.S ([2]; dose 0.40 uM)	Dose.FC.LYZ.S ([2]; dose 2.00 uM)	Dose.FC.LYZ.S ([2]; dose 10.00 uM)	Dose.FC.CTG (ENR+CD organoids; dose 0.08 uM)	Dose.FC.CTG (ENR+CD organoids; dose 0.40 uM)	Dose.FC.CTG (ENR+CD organoids; dose 2.00 uM)	Dose.FC.CTG (ENR+CD organoids; dose 10.00 uM)	Z.LYZ.NS [1, 3]	Z.LYZ.NS [1, 4]	Z.LYZ.NS [1, 5]	Z.LYZ.NS [1, 6]	Z.CTG (ENR+CD organoids; dose 0.08 uM)	Z.CTG (ENR+CD organoids; dose 0.40 uM)	Z.CTG (ENR+CD organoids; dose 2.00 uM)	Z.CTG (ENR+CD organoids; dose 10.00 uM)	further results
C[C@H](CS)C(=O)N1CCC[C@H]1C(=O)O [Captopril]	0.059 log2 fold change	0.035 log2 fold change	0.033 log2 fold change	0.153 log2 fold change	0.049 log2 fold change	0.109 log2 fold change	0.051 log2 fold change	0.077 log2 fold change	−0.056 log2 fold change	0.108 log2 fold change	0.123 log2 fold change	0.107 log2 fold change	–	–	–	–	–	–	–	–	Z.LYZ.NS ([1]; primary screen, standard z score, dose 0.08 uM): 0.511; Z.LYZ.NS ([1]; primary screen, standard z score, dose 0.40 uM): 0.307; Z.LYZ.NS ([1]; primary screen, standard z score, dose 2.00 uM): 0.285; Z.LYZ.NS ([1]; primary screen, standard z score, dose 10.00 uM): 1.330
CN1C(=O)C(Cc2c[nH]c3ccccc23)NC1=S (stereo not drawn) [Necrostatin-1]	–	–	–	–	–	–	–	–	–	–	–	–	0.524	0.174	1.338	0.496	0.244	0.401	0.027	0.328	Dose.FC.LYZ.NS [1, 7]: 0.060 log2 fold change; Dose.FC.LYZ.NS [1, 8]: 0.020 log2 fold change; Dose.FC.LYZ.NS [1, 9]: 0.154 log2 fold change; Dose.FC.LYZ.NS [1, 10]: 0.057 log2 fold change; Dose.FC.LYZ.S [2, 11]: 0.077 log2 fold change; Dose.FC.LYZ.S [2, 12]: 0.038 log2 fold change; Dose.FC.LYZ.S [2, 13]: 0.092 log2 fold change; Dose.FC.LYZ.S [2, 14]: 0.229 log2 fold change; Dose.FC.CTG (ENR+CD organoids; [11]): 0.102 log2 fold change; Dose.FC.CTG (ENR+CD organoids; [12]): 0.168 log2 fold change; Dose.FC.CTG (ENR+CD organoids; [13]): 0.011 log2 fold change; Dose.FC.CTG (ENR+CD organoids; [14]): 0.137 log2 fold change
O=C(NNc1ccccc1)c1ccncc1 [PluriSIn #1 (NSC 14613)]	–	–	–	–	–	–	–	–	–	–	–	–	0.720	0.039	−0.929	−2.475	−0.349	−0.226	−1.035	−2.038	Dose.FC.LYZ.NS [1, 7]: 0.083 log2 fold change; Dose.FC.LYZ.NS [1, 8]: 0.004 log2 fold change; Dose.FC.LYZ.NS [1, 9]: −0.107 log2 fold change; Dose.FC.LYZ.NS [1, 10]: −0.284 log2 fold change; Dose.FC.LYZ.S [2, 11]: 0.057 log2 fold change; Dose.FC.LYZ.S [2, 12]: −0.007 log2 fold change; Dose.FC.LYZ.S [2, 13]: −0.133 log2 fold change; Dose.FC.LYZ.S [2, 14]: −0.372 log2 fold change; Dose.FC.CTG (ENR+CD organoids; [11]): −0.146 log2 fold change; Dose.FC.CTG (ENR+CD organoids; [12]): −0.095 log2 fold change; Dose.FC.CTG (ENR+CD organoids; [13]): −0.433 log2 fold change; Dose.FC.CTG (ENR+CD organoids; [14]): −0.853 log2 fold change
CCCCNc1ncc(-c2ccc(CN3CCOCC3)cn2)c(NC2CCC(O)CC2)n1 (stereo not drawn) [UNC2250]	0.115 log2 fold change	0.067 log2 fold change	0.085 log2 fold change	−0.153 log2 fold change	0.142 log2 fold change	0.113 log2 fold change	0.134 log2 fold change	−0.205 log2 fold change	0.265 log2 fold change	0.279 log2 fold change	0.105 log2 fold change	−0.064 log2 fold change	–	–	–	–	–	–	–	–	Z.LYZ.NS (standard z score) ([1]; primary screen, dose 0.08 uM): 1.005; Z.LYZ.NS (standard z score) ([1]; primary screen, dose 0.40 uM): 0.587; Z.LYZ.NS (standard z score) ([1]; primary screen, dose 2.00 uM): 0.744; Z.LYZ.NS (standard z score) ([1]; primary screen, dose 10.00 uM): −1.336; Z.CTG (standard z score) (ENR+CD organoids; dose 0.08 uM): 0.633; Z.CTG (standard z score) (ENR+CD organoids; dose 0.40 uM): 0.667; Z.CTG (standard z score) (ENR+CD organoids; dose 2.00 uM): 0.250; Z.CTG (standard z score) (ENR+CD organoids; dose 10.00 uM): −0.153
CCn1c(N)c(C(=O)NC)c(=O)c2ccc(C#C[C@@](C)(O)COC)nc21 [SAR131675]	–	–	–	–	–	–	–	–	–	–	–	–	0.483	0.774	0.181	−0.766	0.419	−0.201	0.169	0.149	Dose.FC.LYZ.NS ([1]; primary screen, dose 0.08 uM, FC relative to plate median): 0.055 log2 fold change; Dose.FC.LYZ.NS ([1]; primary screen, dose 0.40 uM, FC relative to plate median): 0.089 log2 fold change; Dose.FC.LYZ.NS ([1]; primary screen, dose 2.00 uM, FC relative to plate median): 0.021 log2 fold change; Dose.FC.LYZ.NS ([1]; primary screen, dose 10.00 uM, FC relative to plate median): −0.088 log2 fold change; Dose.FC.LYZ.S [2, 15]: 0.148 log2 fold change; Dose.FC.LYZ.S [2, 16]: 0.096 log2 fold change; Dose.FC.LYZ.S [2, 17]: 0.026 log2 fold change; Dose.FC.LYZ.S [2, 18]: 0.000 log2 fold change; Dose.FC.CTG (ENR+CD organoids; [15]): 0.175 log2 fold change; Dose.FC.CTG (ENR+CD organoids; [16]): −0.084 log2 fold change; Dose.FC.CTG (ENR+CD organoids; [17]): 0.071 log2 fold change; Dose.FC.CTG (ENR+CD organoids; [18]): 0.062 log2 fold change
